Measured values taken from patent US20250325517A1, “ORAL DOSAGE FORMS OF ELRAGLUSIB” (Actuate Therapeutics, Inc., priority 2022, published 2025).
“And” between values parts separate entries of the source, which are not always exact repeats. Equal entries are not always repeated. Where two headings read alike, the source gives them in different places. Marks after values point to notes of the source that are not given here.

Test: Phase 1 crossover PK study: oral solution fed/fasted vs IV infusion in healthy subjects
Assay type: in vivo, human
Settings: for bioavailability: dose increasing from 180 mg to 320 mg
Description: This pharmacokinetic (PK) study in healthy subjects was conducted to characterize and compare the PK parameters in plasma following a single intravenous (IV) dose of Elraglusib Injection, Elraglusib Oral Solution after fasting, and Elraglusib Oral Solution after a high-fat meal (fed). The study was intended to assess the potential feasibility of an oral formulation of elraglusib based on systemic exposure being within the biologically active range. In clinical studies conducted to date, elraglusib Injection (10 mg/mL) is administered IV once or twice per week over multiple hours, which requires a significant amount of time and resources by both patients and site personnel. […] See Example 3 above.
The route of administration is by IV infusion after diluting elraglusib for injection with 0.9% Sodium Chloride Injection.
It is a clear, red solution, free of visible particulate matter and a low bioburden liquid dosage form that is self-preserving against microbial growth.
Subjects received a single 3.3 mg/kg dose of each of the following in a randomly assigned order separated by a 2-week period.
During the study, the high fat meal was administered over a period of under 30 minutes (in almost all cases, 28 minutes).
Elraglusib Injection (10 mg/mL) administered as an IV infusion over 60 minutes (concentration in mg/mL and infusion rate in mL/kg/hour could vary depending on the subject's body weight).
PK parameters including AUC, Cmax, Tmax, and t1/2 were analyzed by standard non-compartmental analysis (NCA) methods following each of the elraglusib doses. Log transformed Cmax and AUC parameters in subjects having adequate PK data following at least 1 of the oral and IV doses were used to assess the relative bioavailability of the oral dose (fed and/or fasted) compared to the IV dose.
All efforts were made to obtain the PK samples at the scheduled nominal times relative to dosing. PK samples were assayed using validated analytical methods.

[1] = oral 3.3 mg/kg fasted state, human plasma
[2] = oral 3.3 mg/kg fed state, human plasma
[3] = oral fasted vs IV infusion, 3.3 mg/kg
[4] = oral fed vs IV infusion, 3.3 mg/kg
[5] = oral fed vs oral fasted, 3.3 mg/kg

## Cn1cc(C2=C(c3coc4ccc(F)cc34)C(=O)NC2=O)c2cc3c(cc21)OCO3 [elraglusib, 3-(5-fluorobenzofuran-3-yl)-4-(5-methyl-5H-[1,3]dioxolo[4,5-f]indol-7-yl)-1H-pyrrole-2,5-dione]
human, plasma, po, 3.3 mg/kg, oral 3.3 mg/kg fasted state, human plasma, read-out: Tmax Median
  Tmax: 2 h
human, plasma, po, 3.3 mg/kg, oral 3.3 mg/kg fasted state, human plasma, read-out: t1/2 Arithmetic Mean (converted)
  half-life: 16.4 h
human, plasma, po, 3.3 mg/kg, oral 3.3 mg/kg fasted state, human plasma, read-out: t1/2 GMean (converted)
  half-life: 15.6 h
human, plasma, po, 3.3 mg/kg, oral 3.3 mg/kg fasted state, human plasma, read-out: t1/2 Median (converted)
  half-life: 18.2 h
human, plasma, po, 3.3 mg/kg, oral 3.3 mg/kg fed state, human plasma, read-out: AUC24 Arithmetic Mean
  AUC: 3930 ng·h/mL
human, plasma, po, 3.3 mg/kg, oral 3.3 mg/kg fed state, human plasma, read-out: AUC24 GMean
  AUC: 3420 ng·h/mL
human, plasma, po, 3.3 mg/kg, oral 3.3 mg/kg fed state, human plasma, read-out: AUC24 Median
  AUC: 3990 ng·h/mL
human, plasma, po, 3.3 mg/kg, oral 3.3 mg/kg fed state, human plasma, read-out: AUC48 Arithmetic Mean
  AUC: 4550 ng·h/mL
human, plasma, po, 3.3 mg/kg, oral 3.3 mg/kg fed state, human plasma, read-out: AUC48 GMean
  AUC: 3980 ng·h/mL
human, plasma, po, 3.3 mg/kg, oral 3.3 mg/kg fed state, human plasma, read-out: AUC48 Median
  AUC: 4440 ng·h/mL
human, plasma, po, 3.3 mg/kg, oral 3.3 mg/kg fed state, human plasma, read-out: AUC72 Arithmetic Mean
  AUC: 4780 ng·h/mL
human, plasma, po, 3.3 mg/kg, oral 3.3 mg/kg fed state, human plasma, read-out: AUC72 GMean
  AUC: 4160 ng·h/mL
human, plasma, po, 3.3 mg/kg, oral 3.3 mg/kg fed state, human plasma, read-out: AUC72 Median
  AUC: 4600 ng·h/mL
human, plasma, po, 3.3 mg/kg, oral 3.3 mg/kg fed state, human plasma, read-out: AUC96 Arithmetic Mean
  AUC: 4890 ng·h/mL
human, plasma, po, 3.3 mg/kg, oral 3.3 mg/kg fed state, human plasma, read-out: AUC96 GMean
  AUC: 4250 ng·h/mL
human, plasma, po, 3.3 mg/kg, oral 3.3 mg/kg fed state, human plasma, read-out: AUC96 Median
  AUC: 4730 ng·h/mL
human, plasma, po, 3.3 mg/kg, oral 3.3 mg/kg fed state, human plasma, read-out: AUClast Arithmetic Mean
  AUC(0-t): 4890 ng·h/mL
human, plasma, po, 3.3 mg/kg, oral 3.3 mg/kg fed state, human plasma, read-out: AUClast GMean
  AUC(0-t): 4250 ng·h/mL
human, plasma, po, 3.3 mg/kg, oral 3.3 mg/kg fed state, human plasma, read-out: AUClast Median
  AUC(0-t): 4730 ng·h/mL
human, plasma, po, 3.3 mg/kg, oral 3.3 mg/kg fed state, human plasma, read-out: AUC∞ Arithmetic Mean
  AUC(0-inf): 5000 ng·h/mL
human, plasma, po, 3.3 mg/kg, oral 3.3 mg/kg fed state, human plasma, read-out: AUC∞ GMean
  AUC(0-inf): 4330 ng·h/mL
human, plasma, po, 3.3 mg/kg, oral 3.3 mg/kg fed state, human plasma, read-out: AUC∞ Median
  AUC(0-inf): 5020 ng·h/mL
human, plasma, po, 3.3 mg/kg, oral 3.3 mg/kg fed state, human plasma, read-out: CL/F Arithmetic Mean (converted)
  CL/F: 15.1 mL/min/kg
human, plasma, po, 3.3 mg/kg, oral 3.3 mg/kg fed state, human plasma, read-out: CL/F GMean (converted)
  CL/F: 12.7 mL/min/kg
human, plasma, po, 3.3 mg/kg, oral 3.3 mg/kg fed state, human plasma, read-out: CL/F Median (converted)
  CL/F: 11 mL/min/kg
human, plasma, po, 3.3 mg/kg, oral 3.3 mg/kg fed state, human plasma, read-out: Cmax Arithmetic Mean
  Cmax: 592 ng/mL
human, plasma, po, 3.3 mg/kg, oral 3.3 mg/kg fed state, human plasma, read-out: Cmax GMean
  Cmax: 474 ng/mL
human, plasma, po, 3.3 mg/kg, oral 3.3 mg/kg fed state, human plasma, read-out: Cmax Median
  Cmax: 507 ng/mL
human, plasma, po, 3.3 mg/kg, oral 3.3 mg/kg fed state, human plasma, read-out: Tmax Arithmetic Mean
  Tmax: 5.34 h
human, plasma, po, 3.3 mg/kg, oral 3.3 mg/kg fed state, human plasma, read-out: Tmax GMean
  Tmax: 5.02 h
human, plasma, po, 3.3 mg/kg, oral 3.3 mg/kg fed state, human plasma, read-out: Tmax Median
  Tmax: 5 h
human, plasma, po, 3.3 mg/kg, oral 3.3 mg/kg fed state, human plasma, read-out: Vz/F GMean
  Vd/F: 20.9 L/kg and 1530 L
human, plasma, po, 3.3 mg/kg, oral 3.3 mg/kg fed state, human plasma, read-out: t1/2 Arithmetic Mean (converted)
  half-life: 20.8 h
human, plasma, po, 3.3 mg/kg, oral 3.3 mg/kg fed state, human plasma, read-out: t1/2 GMean (converted)
  half-life: 19 h
human, plasma, po, 3.3 mg/kg, oral 3.3 mg/kg fed state, human plasma, read-out: t1/2 Median (converted)
  half-life: 21.2 h
human, plasma, po, 3.3 mg/kg, oral 3.3 mg/kg, Fasted, read-out: AUClast LS Means
  AUC(0-t): 1460 ng·h/mL
human, plasma, po, 3.3 mg/kg, oral 3.3 mg/kg, Fasted, read-out: AUC∞ LS Means
  AUC(0-inf): 1480 ng·h/mL
human, plasma, po, 3.3 mg/kg, oral 3.3 mg/kg, Fasted, read-out: Cmax LS Means
  Cmax: 133 ng/mL
human, plasma, po, 3.3 mg/kg, oral 3.3 mg/kg, Fed, read-out: AUClast LS Means
  AUC(0-t): 4250 ng·h/mL
human, plasma, po, 3.3 mg/kg, oral 3.3 mg/kg, Fed, read-out: AUC∞ LS Means
  AUC(0-inf): 4330 ng·h/mL
human, plasma, po, 3.3 mg/kg, oral 3.3 mg/kg, Fed, read-out: Cmax LS Means
  Cmax: 474 ng/mL
human, plasma, po, human, fasting, read-out: oral bioavailability, FAUC∞ based regression
  bioavailability: 14 to 24%
human, plasma, po, human, fasting, read-out: oral bioavailability, FCmax based regression
  bioavailability: 4 to 16%
human, plasma, po, human, fed state, read-out: oral bioavailability, FAUC∞ based regression
  bioavailability: 41 to 71%
human, plasma, po, human, fed state, read-out: oral bioavailability, FCmax based regression
  bioavailability: 16 to 52%
[1]
  % extrap Arithmetic Mean: 1.518%
  % extrap GMean: 1.219%
  % extrap Median: 1.45%
  AUC∞/Dose Arithmetic Mean: 7.224 ng·h/mL/mg
  AUC∞/Dose GMean: 6.128 ng·h/mL/mg
  AUC∞/Dose Median: 5.77 ng·h/mL/mg
  Clast Arithmetic Mean: 1.158 ng/mL
  Clast GMean: 0.8024 ng/mL
  Clast Median: 0.719 ng/mL
  Cmax/Dose Arithmetic Mean: 0.6705 ng/mL/mg
  Cmax/Dose GMean: 0.5482 ng/mL/mg
  Cmax/Dose Median: 0.622 ng/mL/mg
  R^2 Arithmetic Mean: 0.9926 #
  R^2 GMean: 0.9925 #
  R^2 Median: 0.9962 #
  λZ Arithmetic Mean: 0.04754 h⁻¹
  λZ GMean: 0.04443 h⁻¹
  λZ Median: 0.0381 h⁻¹
[2]
  % extrap Arithmetic Mean: 1.865%
  % extrap GMean: 1.301%
  % extrap Median: 1.73%
  AUC∞/Dose Arithmetic Mean: 20.18 ng·h/mL/mg
  AUC∞/Dose GMean: 17.90 ng·h/mL/mg
  AUC∞/Dose Median: 19.2 ng·h/mL/mg
  Clast Arithmetic Mean: 3.055 ng/mL
  Clast GMean: 2.053 ng/mL
  Clast Median: 2.03 ng/mL
  Cmax/Dose Arithmetic Mean: 2.340 ng/mL/mg
  Cmax/Dose GMean: 1.958 ng/mL/mg
  Cmax/Dose Median: 2.11 ng/mL/mg
  R^2 Arithmetic Mean: 0.9928 #
  R^2 GMean: 0.9928 #
  R^2 Median: 0.9963 #
  λZ Arithmetic Mean: 0.04026 h⁻¹
  λZ GMean: 0.03648 h⁻¹
  λZ Median: 0.0327 h⁻¹
[3]
  Relative bioavailability, Ratio (%) Fasted/IV, AUClast: 17.11%
  Relative bioavailability, Ratio (%) Fasted/IV, AUC∞: 17.15%
  Relative bioavailability, Ratio (%) Fasted/IV, Cmax: 7.62%
[4]
  Relative bioavailability, Ratio (%) Fed/IV, AUClast: 50.75%
  Relative bioavailability, Ratio (%) Fed/IV, AUC∞: 51.06%
  Relative bioavailability, Ratio (%) Fed/IV, Cmax: 27.24%
[5]
  Relative bioavailability, Ratio (%) Fed/Fasted, AUClast: 291.00%
  Relative bioavailability, Ratio (%) Fed/Fasted, AUC∞: 292.05%
  Relative bioavailability, Ratio (%) Fed/Fasted, Cmax: 357.10%
plasma, other: oral solution (fed and fasted) and IV infusion, 3.3 mg/kg, human, individual subjects, across treatments, read-out: quantifiable plasma concentrations at 96 hours post-dose
  concentration at 96 h: 0.273 to 7.18 ng/mL
